119 molecules from a melting point compilation (Tetko et al.) can be followed below.

SMILES strings stand for the structures.

One may read the melting point as the temperature, or range, at which the solid turns liquid. With `COC(=O)C=CN(C)C`, the melting point fell in the range of 43 to 45 °C.

Take `CC(C)CNC(=O)C(C)Cl` (centres undefined): the melting point fell in the range of 37 to 39 °C.

On to `NCCNc1ccncc1`, for which the melting point lay in the range of 118 to 120 °C. Under `Nc1ccc(S(=O)(=O)Nc2ccccc2Cl)c(Cl)c1` stands 239 to 241 °C; under `Cc1cc(C(=O)CCl)c(C)n1-c1ccc(Br)cc1`, 82 to 84 °C. `CCn1c(N)cc(=O)[nH]c1=O` had a melting point of 125 to 127 °C. For the molecule `O=C(O)Cc1csc(-c2ccc(Cl)s2)n1`, the melting point fell in the range of 136 to 138 °C. Under `O=C(O)c1ccc(F)cc1-c1ccc(Cl)c(Cl)c1` stands 179 to 181 °C.

In turn, `Cc1ccc(C)n1-c1cn[nH]c1` registered a melting point of 155 to 157 °C. The result for `Nc1ccc(S(=O)(=O)Nc2nncs2)cc1` reads 211 to 213 °C. Molecule `Cc1nc(Cl)c2c3c(sc2n1)CCC3` displayed a melting point of 91 to 93 °C.

In the case of `O=C(O)c1ccc(S(=O)(=O)N2CCOCC2)cc1`, the melting point lay within 287 to 289 °C. Under `O=C(CCl)N1CCc2[nH]c3ccccc3c2C1` stands 188 to 190 °C. For the molecule `OC1CCCC1N1CCN(c2cccc(Cl)c2)CC1` (centres undefined), the melting point was 99 to 101 °C. Under `COc1ccc(-c2csc3ncnc(Cl)c23)cc1` stands 163 to 167 °C. The result for `Cc1nn(C)c(C(F)(F)Cl)c1C(=O)O` reads 122 to 124 °C. `CC(N)c1nc(-c2ccc(Br)cc2)cs1` (centres undefined) displayed a melting point of 77 to 79 °C. For the molecule `CC1(c2ccc3c(c2)CCC3)NC(=O)NC1=O` (centres undefined), the melting point lay within 188 to 190 °C. Under `COC(=O)C(=O)CC(=O)c1ccccc1C` stands 59 to 61 °C. The result for `Nc1cc(F)c(-n2cccn2)cc1N` reads 101 to 103 °C. On to `NC(c1ccc(Cl)cc1)c1ccc(C(F)(F)F)cc1` (centres undefined), for which the melting point is 58 to 60 °C. The result for `COCCn1c(N)c(NCc2ccccc2)c(=O)[nH]c1=O` reads 151 to 153 °C. The result for `O=C(O)CCNS(=O)(=O)c1ccc2c(c1)CCCC2` reads 106 to 110 °C; that for `CCCn1c(N)c(NCCN2CCOCC2)c(=O)[nH]c1=O`, 153 to 155 °C.

The molecule `O=C(CCl)Nc1ccccc1C(=O)NC1CC1` registered a melting point of 170 to 172 °C.

Turning to `COC(=O)c1c(C)n(C)c2ccc(O)cc12`, the melting point lay in the range of 223 to 225 °C. Molecule `O=c1[nH]nc2cnccn12` came in with a melting point of 229 to 231 °C. The result for `O=C1NC(=O)C2(CCOc3ccccc32)N1` (centres undefined) reads 120 to 122 °C.

On to `Cc1cc([N+](=O)[O-])ccc1S(N)(=O)=O`, for which the melting point was in the range of 155 to 157 °C.

`CC(C)Cn1[nH]c(CC(=O)O)cc1=O` registered a melting point of 164 to 166 °C. Under `NC(=O)CCN1C(=O)NC2(CCCC2)C1=O` stands 150 to 152 °C; under `NC(=O)Cn1cc(NC(=O)OCC(F)(F)F)cn1`, 150 to 152 °C; under `N#Cc1ccc(Cn2cnc(N)n2)cc1`, 169 to 171 °C.

In turn, `O=C(O)CN1C(=O)C2CC=CCC2C1=O` (centres undefined) yielded a melting point of 83 to 85 °C. The result for `COc1cc(C(=O)O)c([N+](=O)[O-])cc1OCC#N` reads 149 to 151 °C. The result for `O=C(O)C1=COCCO1` reads 164 to 166 °C; that for `COc1ccc(Cl)cc1CBr`, 77 to 79 °C. Under `NCc1cn(-c2ccccc2)nc1-c1ccccc1` stands 61 to 63 °C. `O=C(O)C1CCCN1C(=O)C12CC3CC(CC(C3)C1)C2` (centres undefined): the melting point fell in the range of 193 to 195 °C. Under `O=C1CCCc2c1sc1ccccc21` stands 113 to 115 °C.

Consider `Nc1c(-c2ccccn2)nc2ccccn12`, for which the melting point lay within 199 to 201 °C. Under `O=[N+]([O-])c1ccc(S(=O)(=O)Cl)cc1Br` stands 59 to 61 °C; under `Nc1cccc(-c2ccc3c(c2)CCO3)c1`, 64 to 66 °C. The result for `Cc1nc(C(=O)O)nn1-c1nnc[nH]1` reads 225 to 227 °C; that for `O=C1NCCCc2sccc21`, 89 to 91 °C. `O=C(O)CCc1nnc(-c2ccsc2)o1` yielded a melting point of 159 to 161 °C. Under `Cn1c(S)nnc1-c1ccc(Cl)cc1` stands 113 to 115 °C; under `Nc1ccnc(OCC(F)(F)F)c1`, 39 to 41 °C.

`Cc1cc(/C=C(\C#N)C(=O)O)c(C)n1-c1ccccc1F`: the melting point lay in the range of 165 to 167 °C. Under `O=c1[nH]cnc2cc(-c3ccc(Cl)cc3)sc12` stands 327 to 329 °C. Under `N#Cc1c(N)sc2c1CCCCCC2` stands 104 to 106 °C; under `Nc1cnn(-c2ccccn2)c1`, 79 to 81 °C; under `Cc1ccc(-c2csc(NCCCC(=O)O)n2)s1`, 110 to 112 °C. The result for `COc1cccc(OC)c1CO` reads 53 to 55 °C. In turn, `O=C1NC(=O)C2(CCC2)N1` showed a melting point of 222 to 224 °C. Under `O=c1c2ccccc2ncn1CCBr` stands 105 to 107 °C; under `COc1ccc(N)cc1OCC(=O)NC1CC1`, 87 to 89 °C. Under `Cc1nsc(Nc2ccccc2)c1C#N` stands 172 to 174 °C; under `Cc1ccc(-n2nnc(C(=O)O)c2C(C)C)cc1`, 176 to 178 °C. In turn, `CCN1N=C(C(=O)O)CCC1=O` displayed a melting point of 147 to 149 °C. The molecule `CCOc1oc(-c2ccccc2)nc1C(=O)O` gave a melting point of 147 to 149 °C.

The molecule `Cc1cc([N+](=O)[O-])ccc1S(=O)(=O)Cl` showed a melting point of 69 to 71 °C.

`CCOC(=O)C1=C(C)NC(=O)NC1CCl` (centres undefined) returned a melting point of 169 to 171 °C. The result for `O=C(O)c1cc(-c2ccc3c(c2)CCO3)no1` reads 235 to 237 °C; that for `NC(=O)c1ccc(C(=O)O)cn1`, 347 to 349 °C; that for `O=C1C(Br)CCN1c1ccccc1F` (centres undefined), 76 to 78 °C.

`CC(=O)CC(=O)c1cccc(Cl)c1`: the melting point lay within 39 to 41 °C.

`NC(=O)c1ccn(-c2ccccc2N)n1` displayed a melting point of 161 to 163 °C. Under `O=C1Nc2c(F)ccc(Br)c2C1=O` stands 274 to 276 °C; under `O=C(O)Cn1ccc2cc([N+](=O)[O-])ccc21`, 192 to 194 °C; under `COc1cc(OC)c(N(C)S(=O)(=O)c2cccc(C(=O)O)c2)cc1Cl`, 208 to 210 °C. The result for `CCCOc1cn(-c2ccccc2)nc1C(=O)O` reads 119 to 121 °C; that for `N#CCc1ccc(NC(=O)CCl)cc1`, 122 to 124 °C. Under `Cc1ccccc1-c1nc(C(=O)O)cs1` stands 119 to 121 °C.

As to `COC(=O)c1cc2ccccn2c1`, the melting point is 94 to 96 °C. Under `O=C(CC(=O)Nc1cc(Cl)ccc1Cl)Nc1cc(Cl)ccc1Cl` stands 226 to 228 °C; under `O=C(O)C1CCCN1c1ncc(C(F)(F)F)cc1Cl` (centres undefined), 99 to 101 °C; under `O=C(O)C1CC(=O)N(c2ccc3c(c2)OCO3)C1` (centres undefined), 172 to 174 °C. The result for `N#CCc1ccc(-n2cccn2)cc1` reads 127 to 129 °C; that for `NC(=O)COc1ccc(C(=O)CCl)cc1`, 163 to 165 °C; that for `O=Cc1nccc2ccccc12`, 51 to 53 °C.

`O=C(O)CCC1NC(=O)N(c2ccc(Cl)cc2)C1=O` (centres undefined) came in with a melting point of 212 to 214 °C.

On to `COc1ccc2c(-c3ccccc3)cc(S)nc2c1`, for which the melting point lay within 180 to 182 °C. Under `Cn1nnnc1Sc1ccc(Cl)cc1N` stands 128 to 130 °C. Under `NS(=O)(=O)c1cccc(NC(=O)CCl)c1` stands 162 to 171 °C; under `COC(=O)c1cc(-c2cccs2)ccc1N`, 89 to 91 °C; under `O=C(O)c1cccn1Cc1cccs1`, 134 to 136 °C. The result for `COc1ccc(-c2noc(CCCC(=O)O)n2)cc1` reads 109 to 111 °C.

Take `COc1ccc(C(C)=O)c(OCc2ccccc2)c1`: the melting point was in the range of 59 to 61 °C.

Regarding `COC(=O)c1ccccc1NC(=O)OCC(F)(F)F`, the melting point lay in the range of 86 to 88 °C. On to `COC(=O)c1ccc(N)c(F)c1`, for which the melting point was in the range of 111 to 113 °C.

Molecule `O=S(=O)(Nc1nc2ccccc2nc1Cl)c1cccc(Cl)c1` registered a melting point of 158 to 160 °C. Under `O=C(O)c1ccc(Cl)c(NS(=O)(=O)c2ccc(F)cc2)c1` stands 211 to 213 °C; under `CC(C)(C)OC(=O)N1CCCC(C(C)(C)C(=O)O)C1` (centres undefined), 96 to 98 °C. The result for `O=C(O)c1ccc(Oc2ccc(Cl)cc2)c(Cl)c1` reads 167 to 169 °C; that for `Cc1nn(CC(F)(F)F)c(C)c1C(C)C(=O)O` (centres undefined), 130 to 132 °C; that for `O=C(O)CNC(=O)c1cc(F)cc(F)c1`, 154 to 156 °C. Molecule `CCc1ccc(OCC(=O)O)cc1` showed a melting point of 93 to 97 °C. Under `COC(=O)c1cc2c(OC(F)F)cccc2[nH]1` stands 144 to 146 °C; under `NCc1nc2cc(Cl)ccc2s1`, 68 to 70 °C; under `OCCN1CCN(c2ccc(CO)nn2)CC1`, 129 to 131 °C.

Turning to `Fc1ccccc1-c1nc(CCl)cs1`, the melting point lay in the range of 64 to 66 °C. Under `CCCCNc1nnc(C)c2ccccc12` stands 74 to 76 °C. The result for `N#Cc1cccnc1NCCO` reads 79 to 81 °C; that for `Cc1cc(S(=O)(=O)N(C)C)cc(N)c1C`, 178 to 180 °C; that for `Clc1ncnc2ccc(Br)cc12`, 166 to 168 °C.

`O=C(O)c1cnn(-c2ccccc2Cl)c1`: the melting point lay within 170 to 172 °C.

`Nc1cccc(OCc2ccc(F)cc2)c1` gave a melting point of 87 to 89 °C. The result for `[N-]=[N+]=NCCN1C(=O)C(=O)c2ccccc21` reads 71 to 73 °C; that for `O=C(O)C1(Cc2ccccc2)CC2CCC1C2` (centres undefined), 89 to 91 °C. In turn, `CCS(=O)(=O)N(C)CC(=O)O` came in with a melting point of 70 to 72 °C. The result for `CC(C)CS(=O)(=O)CCC(=O)O` reads 110 to 112 °C; that for `CCOC(=O)C(=O)c1ncc(Cl)n1C`, 46 to 48 °C. The result for `CCc1cc(Cl)nc(-c2ccncc2)n1` reads 99 to 101 °C. The result for `CN(C)c1ccnc(C(=O)O)c1` reads 234 to 236 °C; that for `Cc1n[nH]c(C)c1CC(=O)O`, 151 to 155 °C; that for `CC(C)(C)OC(=O)NC1(C(N)=NO)CCCC1`, 168 to 170 °C. `Cc1c(C(=O)O)nnn1-c1ccc(Br)cc1Cl` registered a melting point of 163 to 165 °C. The molecule `COc1cc(N)c(N)cc1OC` had a melting point of 126 to 128 °C.
